From patent US8546394B2, “Substituted [1,2,4]triazolo[4,3-A]pyrazine 11-beta-hydroxysteroid dehydrogenase inhibitors” (Bristol-Myers Squibb Company, priority 2007, dated 2013)
Counter-ions that a name gives are not always drawn.

System: mildly overweight individuals with type 2 diabetes
Test: not given
Details: seven day study, versus placebo; cited from earlier work

SMILES | hepatic glucose production
CC1(C)[C@@H](OC(=O)CCC(=O)O)CC[C@]2(C)[C@H]3C(=O)C=C4[C@@H]5C[C@@](C)(C(=O)O)CC[C@]5(C)CC[C@@]4(C)[C@]3(C)CC[C@@H]12 [carbenoxolone] | decrease in hepatic glucose production

Molecular target: T1, recombinant human 11beta-HSD1 (Homo sapiens, UniProt P28845)
T1 construct: Full length recombinant human 11β-HSD1 cDNAs and the cDNA encoding human 11β-HSD2 were expressed stably in HEK 293 EBNA cells; made in house
T1 sequence (P28845 whole entry): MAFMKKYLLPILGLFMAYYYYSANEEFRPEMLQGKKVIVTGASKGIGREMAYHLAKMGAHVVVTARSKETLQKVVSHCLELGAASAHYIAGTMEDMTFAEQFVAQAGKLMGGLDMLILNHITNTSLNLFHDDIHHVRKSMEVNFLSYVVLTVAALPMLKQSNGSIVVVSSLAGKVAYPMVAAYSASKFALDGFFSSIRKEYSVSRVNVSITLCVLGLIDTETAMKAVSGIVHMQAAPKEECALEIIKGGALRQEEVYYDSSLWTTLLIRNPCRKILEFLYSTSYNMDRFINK
Test: 11β-HSD1 SPA enzyme assay (in vitro inhibition, human microsomes, 3H-cortisone)
Format: biochemical
Details: microsomes from HEK 293 EBNA cells, 40 nM 3H-cortisone, 4 hrs room temperature
Method: The in vitro inhibition of recombinant human 11beta-HSD1 was determined as follows.
[^3H]-Cortisone with a specific radioactivity of 50 Ci/mmol (ART 743, Lot: 050906) was from American Radiolabeled Chemicals, Inc. (St Louis, Mo.); monoclonal ab to Cortisol (P01-9294M-P, Lot: L-28) was from East Coast Bio., (North Berwick, Me.); Protein A-yttrium silicate, type-1, SPA bead NJ® (RPN-143) was from Amersham LifeSciences, (Piscataway, N.J.); 384 well-Optiplate384® (#6007299) was from PerkinElmer (Boston, Mass.); DPBS, pH 7.4 (14040) is from GIBCO, (Grand Island, N.Y.); carbenoxolone (C4790) is from Sigma, (St Louis, Mo.).
Full length recombinant human 11β-HSD1 cDNAs and the cDNA encoding human 11β-HSD2 were expressed stably in HEK 293 EBNA cells. Cells were grown in DMEM (high glucose) containing MEM non-essential amino acids, L-glutamine, hygromycin B (200 μg/ml), and G-418 (200 μg/ml) in the presence of 10% FBS.
Human 11β-HSD1 transfected HEK 293 EBNA cells were grown to 80% confluency and the cell pellet was quick frozen and stored at −80° C. before purification. Cell paste, 40 g from −80° C. storage, was thawed in water and then 100 ml of homogenization buffer H (0.01 M sodium phosphate pH 6.5 containing 0.25 M sucrose and protease inhibitor cocktail (Roche #1836145 1 tablet per 50 ml) were added to completely thaw the paste. The cell paste suspension was homogenized using a Polytron for 20 seconds to create a homogeneous mixture. Additional buffer H was added to a volume of 300 ml and cells were broken open using a N2-bomb (at 4° C.) in two batches by treating at 500 psi. The extract was centrifuged at 750×g for 30 min. The supernatant was centrifuged at 20,000×g for 30 min. The supernatant was further centrifuged at 105,000×g for 60 min. The 105,000×g pellet was resuspended in buffer H and centrifuged at 105,000×g for 60 min. The microsome pellet was scraped from the bottom of tube and resuspended in 0.01M phosphate buffer, pH 6.5 containing protease inhibitors (Roche #1836145, 1 tablet per 50 ml). Aliquots were stored at −80° C. until needed. The protein concentration was measured by the BioRad method using BSA standard.
Compounds were dissolved in DMSO to obtain 10 mM stock concentrations. From the 10 mM stock, the compounds were diluted in DMSO to achieve the concentrations.
11β-HSD1 SPA Enzyme Assay
11β-HSD1 was assayed by Scintillation Proximity assay in a 384-well Perkin Elmer white plate. The dose response of the compounds was determined using 11 half-log dilutions of compound in DMSO in duplicate. To each well, 0.5 μl of compound dilution in DMSO were added. 15 μl of assay buffer (for blanks) or 15 μl of human microsomes in assay buffer were added next and the plates were incubated for 10 min at room temperature. The final microsomal protein concentration was 1.1 μg/assay. Duplicates were in the same plate one row below the other. 10 μl of ^3H-cortisone (final concentration 40 nM) was added to each well and the plate was spun down to mix and bring down the contents to the bottom of the wells. The plates were incubated at room temperature with gentle shaking for 4 hrs. The reaction was stopped with addition of 10 μl of 10 mM carbenoxolone. Then, 0.5 mg of yttrium silicate SPA beads coupled to anti-cortisol antibody in 20 μl were added to all the wells of plate, which were spun down once more and incubated at room temperature overnight. The plate was read in a TopCount® (1 min/well). Data were uploaded automatically to Tool Set, a Lead Evaluation informatics program for data capture and calculation. Graphs were generated with the Curve Master program.

IC50 | SMILES
12 nM | Clc1ccc(C2(c3nnc4c5c(cnn34)CCCC5)CC2)cc1 [Example 29, 3-(1-(4-Chlorophenyl)cyclopropyl)-7,8,9,10-tetrahydro-[1,2,4]-triazolo[3,4-a]phthalazine TFA Salt]
1.8 nM | CC(C)(c1ccc(Cl)cc1)c1nnc2c(C3CC3)nccn12 [Example 1, 3-(2-(4-Chlorophenyl)propan-2-yl)-8-cyclopropyl-[1,2,4]triazolo[4,3-a]pyrazine]
5130 nM | CC(C)(c1ccc(F)cc1)c1nnc2c(Cl)nccn12 [Example 41]
453 nM | Clc1ccc(C2(c3nnc4nc(C5CC5)ccn34)CC2)cc1 [Example 3, 3-(1-(4-Chlorophenyl)cyclopropyl)-7-cyclopropyl-[1,2,4]triazolo[4,3-a]pyrimidine]
336 nM | OC12CCC(c3nnc4c(Oc5ccccc5Cl)nccn34)(CC1)C2 [Example 27]
1.3 nM | C=CCCc1nccn2c(C3(c4ccc(Cl)cc4)CC3)nnc12 [Example 25]
1.8 nM | CC(C)(Oc1ccc(Cl)cc1Cl)c1nnc2c(C3CC3)nccn12 [Example 38]
6030 nM | CC(C)(Oc1ccccc1)c1nnc2c(Cl)nccn12 [Example 16]
0.5 nM | FC(F)(F)Oc1ccccc1Oc1nccn2c(C3(c4ccc(Cl)cc4)CC3)nnc12 [Example 4, 8-(2-(Trifluoromethoxy)phenoxy)-3-(1-(4-chlorophenyl)cyclopropyl)-[1,2,4]triazolo[4,3-a]pyrazine]
86 nM | Clc1ccc(C2(c3nnc4c5sccc5ncn34)CC2)cc1 [Example 28, 3-(1-(4-Chlorophenyl)cyclopropyl)thieno[2,3-e][1,2,4]triazolo[4,3-c]pyrimidine]
7.9 nM | CC(C)(O)c1nccn2c(C3(c4ccc(Cl)cc4)CC3)nnc12 [Example 35, 2-(3-(1-(4-Chlorophenyl)cyclopropyl)-[1,2,4]triazolo[4,3-a]pyrazin-8-yl)propan-2-ol TFA salt]
1.2 nM | CC(C)(O)c1ccnn2c(C3(c4ccc(Cl)cc4)CC3)nnc12 [Example 36, 2-(3-(1-(4-Chlorophenyl)cyclopropyl)-[1,2,4]-triazolo[4,3-b]pyridazin-8-yl)propan-2-ol]
0.6 nM | Clc1ccc(C2(c3nnc4c(C5CC5)nccn34)CCC2)c(Cl)c1 [Example 6]
